The values below come from patent publication EP2801357A1, “Carboxylated stilbenes for activating AMPK and sirtuins” (IMD Natural Solutions GmbH, priority 2013, dated 2014).

In this test the target is T1, human sirtuin-1 (Sirt1) (Homo sapiens, UniProt Q96EB6).
T1 construct: purchased BioMol, Hamburg, Germany
T1 sequence (Q96EB6 1-747): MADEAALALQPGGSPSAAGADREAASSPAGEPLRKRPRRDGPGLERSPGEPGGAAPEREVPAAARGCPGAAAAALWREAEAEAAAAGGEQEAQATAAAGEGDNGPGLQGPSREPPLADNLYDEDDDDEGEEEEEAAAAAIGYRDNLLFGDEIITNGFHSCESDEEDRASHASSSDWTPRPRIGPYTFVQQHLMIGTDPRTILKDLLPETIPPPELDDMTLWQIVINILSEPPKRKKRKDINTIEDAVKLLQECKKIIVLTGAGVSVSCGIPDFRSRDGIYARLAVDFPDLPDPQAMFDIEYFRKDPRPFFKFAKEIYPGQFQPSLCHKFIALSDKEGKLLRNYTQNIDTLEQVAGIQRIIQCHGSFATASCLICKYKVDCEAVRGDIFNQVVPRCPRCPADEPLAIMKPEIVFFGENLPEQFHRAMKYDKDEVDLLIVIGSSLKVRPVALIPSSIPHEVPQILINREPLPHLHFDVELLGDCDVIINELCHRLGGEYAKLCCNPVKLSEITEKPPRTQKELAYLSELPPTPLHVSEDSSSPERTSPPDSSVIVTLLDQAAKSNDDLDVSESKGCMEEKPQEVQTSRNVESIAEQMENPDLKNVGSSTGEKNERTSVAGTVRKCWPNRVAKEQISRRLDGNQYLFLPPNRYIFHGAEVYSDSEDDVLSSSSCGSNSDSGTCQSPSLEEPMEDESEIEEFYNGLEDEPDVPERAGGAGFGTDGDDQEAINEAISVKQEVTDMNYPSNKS
The test can be described thus: SIRT1 Fluorimetric Drug Discovery Kit, Sirt1 activation. It is filed as biochemical. The procedure: Compounds were tested for Sirt1 activation using the SIRT1 Fluorimetric Drug Discovery Kit (BioMol, Hamburg, Germany), Testing was carried out in duplicate following the manufacturer's instructions. Assay medium: 50mM Tris-HCl pH 8.0, 137 mM NaCl, 2.7 mM KCI, 1 mM MgCl2, 1 mg/ml bovine serum albumin (BSA). Stock solutions of the test compounds (10 mM in DMSO) were used, yielding a final concentration of 10 µM in the assay plate. Readout was obtained by measuring the fluorescence in a microtiter plate reader (excitation: 380 nm; detection: 440 nm).
The agonistic effect on Sirt1 was determined at different concentrations. For this purpose, the test compound stock solutions were diluted to yield concentrations of 0.3, 1, 3, 10 and 30 µM, respectively, in the assay, which was performed as described above. The compound of structure (I-1) was selected for this experiment.
The selectivity of the agonistic effect of the compound of formula (I-1) on different sirtuin isoforms was investigated. For this purpose, in vitro testing was performed as described in Example 1 using the respective SIRT1 Fluorimetric Drug Discovery Kit, SIRT2 Fluorimetric Drug Discovery Kit, and SIRT3 Fluorimetric Drug Discovery Kit (each from BioMol, Hamburg, Germany). […] The dose-response effect is slightly lesser on Sirt3. Table 3: Activity on Sirt1

Each structure is given as a SMILES string. Read-outs that look alike come from different tables or passages of the source.

As for `CCOC(=O)c1c(O)cccc1/C=C/c1ccc(OCC)cc1` [(I-1)], the “Fold increase in sirt1 activity versus control” value (Example 1(a), 10 µM, trans-resveratrol as control (1.0)) is on record as 23.9. Further, the remaining activity at 0.3 µM came to 147% (Example 1(b), Table 2, 0.3 µM, read-out: Activity [% control]) and 111% (Example 2, Table 3, 0.3 µM, read-out: Activity [% control]). In addition, the remaining activity at 1 µM (Example 1(b), Table 2, 1.0 µM, read-out: Activity [% control]) is 233% and the remaining activity at 1 µM (Example 2, Table 3, 1.0 µM, read-out: Activity [% control]) turned out to be 121%. In addition, the remaining activity at 3 µM was determined as 434% (Example 1(b), Table 2, 3.0 µM, read-out: Activity [% control]) and 168% (Example 2, Table 3, 3.0 µM, read-out: Activity [% control]). Further, the remaining activity at 10 µM reads like this: (Example 1(b), Table 2, 10.0 µM, read-out: Activity [% control]) 626%; (Example 2, Table 3, 10.0 µM, read-out: Activity [% control]) 256%. Moreover, the EC300 runs as follows: (Example 1(b), concentration that gave 3-times the basal response of the enzyme) 2.0 µM; (Example 2, Table 6, Sirt1) 12.9 µM. Further, for the setting “Example 2, Table 3, 30.0 µM, read-out: Activity [% control]”, the remaining activity at 30 µM stood at 515%.
